Assay results from patent US9079896B2, “Urotensin II receptor antagonists” (Janssen Pharmaceutica NV, priority 2008, dated 2015).
One block for each compound: values may come before it.

Experiments:
[1] = target: T1, rat GPR14 (U-II receptor) (Rattus norvegicus, UniProt P49684); assay: Rat UII Calcium Mobilization FLIPR Assay; type: cell-based; details: antagonist activity after 5 min incubation vs agonist (Ac)-CFWK(2-NaI)C-NH2 at 1 nM; CHO cells transfected with rat GPR14
T1 construct: expressed in transfected cells
T1 sequence (P49684 1-386): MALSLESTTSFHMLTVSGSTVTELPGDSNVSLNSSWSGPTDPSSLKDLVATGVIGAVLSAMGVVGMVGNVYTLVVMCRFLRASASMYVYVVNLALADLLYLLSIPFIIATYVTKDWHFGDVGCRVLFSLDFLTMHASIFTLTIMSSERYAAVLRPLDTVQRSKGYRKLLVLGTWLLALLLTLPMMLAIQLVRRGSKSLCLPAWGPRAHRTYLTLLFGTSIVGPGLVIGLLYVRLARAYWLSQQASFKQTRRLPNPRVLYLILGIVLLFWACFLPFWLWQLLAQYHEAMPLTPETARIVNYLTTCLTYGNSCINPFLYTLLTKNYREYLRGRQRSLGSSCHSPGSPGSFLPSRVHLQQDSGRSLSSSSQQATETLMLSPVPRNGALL
From the text: A calcium mobilization assay based on a Fluorescence Imaging Plate
Res. Commun. 1995, 209, 752-759. A. Marchese, M. Heiber, T. Nguyen, H. H. Heng, V. R. Saldivia, R. Cheng, P. M. Murphy, L. C. Tsui, X. Shi, P. Gregor, Genomics 1995, 29, 335-344.).
To derive these cells, the complete coding sequence of rat U-II (Genbank Accession No. U32673) was amplified by nested PCR from rat heart marathon-Ready cDNA. […] The PCR products were cloned into pcDNA3 (Invitrogen) digested with EcoR I and Xba I. Clones containing rat U-II receptor were verified by complete sequencing of the U-II receptor insert to ensure a lack of PCR-introduced errors. The constructed vector was transfected into CHO cells by using lipofectamine (GIBCO BRL). CHO cells with high expression of rat U-II receptor were selected and established as stable cell lines by using G418. CHO cells were seeded at 25,000 cells per well into 96-well, black-wall, clear-bottom microtiter plates 24 h before assay. Cells in culture media (DMEM/F12 containing 15 mM HEPES, L-glutamine, pyridoxine hydrochloride; 10% fetal bovine serum; 1 mg/mL G418 sulfate; antibiotic-antimycotic; pH 7.4) were loaded with proprietary dye, from the FLIPR Calcium Assay Kit (Molecular Devices), prepared in assay buffer (Hanks Balanced Salts Solution, 20 mM HEPES, 0.1% BSA, 2.5 mM probenecid, pH 7.4), and incubated for 1 h at 37° C. […]

[2] = target: T2, Human UII (6D9 human rhabdomyosarcoma cells) (Homo sapiens, UniProt Q9UKP6); assay: Human UII Calcium Mobilization Assay; type: cell-based; details: FLIPR TETRA, column head prints Ki (μM), read-out: Human UII Ca+ Mobilization Average IC50
T2 construct: 6D9: isolated by dilution subcloning of RMS13 cells; host or cells: 6D9 human rhabdomyosarcoma cells (subclone of RMS13)
T2 sequence (Q9UKP6 1-389): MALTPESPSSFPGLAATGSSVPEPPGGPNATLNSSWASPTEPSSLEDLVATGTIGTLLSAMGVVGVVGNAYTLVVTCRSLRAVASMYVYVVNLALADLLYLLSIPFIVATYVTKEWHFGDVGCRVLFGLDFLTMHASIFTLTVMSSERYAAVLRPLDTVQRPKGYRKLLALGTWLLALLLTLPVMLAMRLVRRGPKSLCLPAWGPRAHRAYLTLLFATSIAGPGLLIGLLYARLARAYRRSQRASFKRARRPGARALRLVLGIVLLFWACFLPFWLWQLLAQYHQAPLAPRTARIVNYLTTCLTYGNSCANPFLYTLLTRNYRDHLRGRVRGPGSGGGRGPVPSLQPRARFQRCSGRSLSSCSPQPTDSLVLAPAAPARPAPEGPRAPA
Description: 25 μL of dye solution was added to the wells such that the final liquid volume before agonist/antagonist treatment was 50 μL for all assays. The cell plates were incubated at 37° C. for 45 minutes and the fluorescence intensity was measured on a Fluorometric Imaging Plate Reader (FLIPR^TETRA, Molecular Devices, Sunnyvale, Calif.).
Antagonist and agonist U-II were added at room temperature on the FLIPR^TETRA, and the fluorescence intensity before and after addition was measured over a period of 4 minutes. The dye incubation time and temperature as well as instrument setting was adjusted so the fluorescence intensity could be compared between plates on the same day. EC50 and IC50 were analyzed using GraphPad Prism 4 software (GraphPad Software Inc., San Diego, Calif.).
For assays, U-II agonist, U-II antagonist and urantide were diluted with HBSS/HEPES containing 0.01% FBS.
Test compounds were dissolved in DMSO at 10 mM concentration. The serial dilutions were carried out in HBSS/HEPES. The highest final DMSO concentration was at 0.1%.

[3] = target: T3, UT receptors in Human Skeletal Muscle Myoblasts (HSMM) (Homo sapiens, UniProt Q9UKP6); details: read-out: Human UII Average Binding Ki; 0.150 nM (125I)-U-II, intact HSMM, 3 h, 25° C.
T3 sequence (Q9UKP6 1-389): T2 sequence (Q9UKP6 1-389)

[4] = target: T1, rat GPR14 (U-II receptor); details: agonist cyclic peptide used in the assay; read-out: FLIPR EC50; cited from earlier work
[5] = target: T4, rU-II (Rattus norvegicus, UniProt P49684); details: agonist cyclic peptide used in the assay; cited from earlier work
T4 sequence (P49684 1-386): T1 sequence (P49684 1-386)

[6] = tested on: isolated arterial rings of rats and humans; details: read-out: EC50 (concentration-dependent contraction); cited from earlier work

Ki [1]: 6 nM | IC50 [2]: 0.34 µM | Ki [3]: 64 nM
Compound: CCN1CCN(c2cccc3c2[C@H]2CCC[C@H](c4ccc(OC)c(OC)c4)N2C3=O)CC1 [Compound 1, (R,R)-4-(3,4-Dimethoxy-phenyl)-10-(4-ethyl-piperazin-1-yl)-1,3,4,10b-tetrahydro-2H-pyrido[2,1-a]isoindol-6-one]

Ki [1]: 34 nM
Compound: CCN1CCN(c2cccc3c2[C@H]2CCCC[C@H](c4ccc(OC)c(OC)c4)N2C3=O)CC1 [Compound 2, (R,R)-7-(3,4-Dimethoxy-phenyl)-1-(4-ethyl-piperazin-1-yl)-7,8,9,10,11,11a-hexahydro-azepino[2,1-a]isoindol-5-one]

Compound: (Ac)-CFWK(2-NaI)C—NH2
EC50 [4]: 0.54 ± 0.2 nM | Ki [5]: 0.12 ± 0.05 nM

Compound: AGTAD-cyclo(CFWKYC)-V [Goby U-II, urotensin-II isolated from the urophysis of the goby fish, a 12-mer]
EC50 [6]: < 1 nM
